According to patent publication US11413267B2, “Methods and compositions for inhibition of ATR and FANCD2 activation” (priority 2012, dated 2022):

Key:
cancer cells = experiment: MTT cytotoxicity assay on cancer cells, 48 h; type: cell-based, human; conditions: FIG. 4
MDA-MB-231 cells = experiment: In vitro chemosensitization assay (clonogenic survival); type: cell-based, human
From the text: Inhibition of the checkpoint and repair mechanisms leads to chemosensitization in cancers. […] We further treated individual cells with cisplatin in combination with several varying doses of benzopyran-4-one derivatives, and counted survival colonies to determine their ability to survive after cisplatin-induced damage. […] To investigate the chemosensitization effect of low-dose benzopyran-4-one derivatives in vivo, we established a tumor xenograft in nude mice using human MDA-MB-231 tumor cells, which are considered to be more resistant to cisplatin and are also sensitive to treatment with benzopyran-4-one derivatives, at least as compared to A549 cells (FIGS. 4, 17(a) and 17(b)). […] The pharmacokinetic data of Protoapigenone (I-1) and compound II-1 needs to be compared in future studies to determine the differences in the chemical effects of these 2 compounds in vitro and in vivo.
Please refer to FIGS. 31(a)-31(e), which are the surviving fractions of MDA-MB-231 cells which were co-administered compound II-1 with the DNA damaging agent, i.e. (a) doxorubicin, (b) etoposide, (c) mytomycin C, (d) camptothecin, or (e) taxol. […] Accordingly, a low dose of benzopyran-4-one derivatives can enhance the chemosensitivity of the chemotherapeutic drug.
To evaluate in vitro chemosensitization, cells were seeded in 6-well plates 1 d before the experiment at a density of 100-400 cells/well. The drugs were incubated with the cells for 6 h, after which the medium was replaced with fresh drug-free FBS-containing medium. The colonies became visible and were counted 7-10 d later using 0.1% crystal violet staining following image capture by a CCD camera (LAS-4000 mini; Fujifilm).

host cell = experiment: MTT assay of host cell toxicity; type: cell-based; conditions: 1 μM, 6 hours treatment plus 18 hours fresh medium
Method: To understand whether or not inhibition of the virus infection is followed by the host cell toxicity caused by the compound treatments, we performed an MTT [3-(4,5-cimethylthiazol-2-yl)-2,5-diphenyl tetrazolium bromide] assay in cells untreated or treated with indicated compounds for 6 hours. After that, the compound is washed out and the MTT assay was tested after an additional 18 hours of fresh culture medium incubation, in a way similar to the protocol shown in FIG. 26. 0.5 mg/mL of MTT contained media was added to cells at the end of the experiment and incubated for 3 hours. Then, the supernatant was removed and the formazone crystals solubilized using 100 μl of DMSO and the absorbance at 570 nm was read using a microplate reader. […] However, the virus inhibition effect of 50-99% is also shown at this dose of Compound II-1.

Question: With `O=C1C=CC(O)(c2cc(=O)c3c(ccc4ccccc43)o2)C=C1` [Compound II-1, 3-(1-hydroxy-4-oxo-cyclohexa-2,5-dienyl)-1H-benzo[f]chromen-1-one] as the molecule, how does the “Cytotoxicity, comparison” value (cancer cells) read?
Answer: more potent than Protoapigenone (I-1)

Question: And the “Survival of MDA-MB-231 cells” value (MDA-MB-231 cells; 2.5 nM to 20.0 nM co-administered with camptothecin)?
Answer: not significantly decreased

Question: What about the “Survival of MDA-MB-231 cells” value (MDA-MB-231 cells; 2.5 nM to 20.0 nM co-administered with doxorubicin) of the same molecule?
Answer: significantly decreased

Question: What about the “Survival of MDA-MB-231 cells” value (MDA-MB-231 cells; 2.5 nM to 20.0 nM co-administered with etoposide) of the same molecule?
Answer: significantly decreased

Question: And the “Survival of MDA-MB-231 cells” value (MDA-MB-231 cells; 2.5 nM to 20.0 nM co-administered with mytomycin C)?
Answer: significantly decreased

Question: What about the “Survival of MDA-MB-231 cells” value (MDA-MB-231 cells; 2.5 nM to 20.0 nM co-administered with taxol) of the same molecule?
Answer: not significantly decreased

Question: And the “Decrease of surviving cells” value (host cell)?
Answer: 5-10%
